Results as given in US7855076B2, “Use of discoidin domain receptor 1 (DDR1) and agents that affect the DDR1/collagen pathway” (The United States of America as represented by the …, priority 2002, dated 2010).

Tests used:
DDR1 = DDR1 autophosphorylation and MAP kinase phosphorylation in iDC and mDC; format: cell-based, human; conditions: DCs, TNF-α stimulation
Protocol: To measure the kinetics of DDR1autophosphorylation, 1×10^7 iDC or TNF-α-induced mDCs were plated on dishes, serum-starved in RPMI 1640 containing 1% FCS for 10 hours, and subsequently activated with agonistic anti-DDR1 IgM (5 μg/ml) or control IgM (5 ug/ml) for varous times. Cell lysates were prepared, DDR1 was immunoprecipitated using anti-DDR1 Ab (C-20), and tyrosine-phosphorylation of DDR1 was analyzed by Western blotting using a mouse monoclonal anti-phosphotyrosine IgG and a sheep anti-mouse IgG coupled with horseradish peroxidase. Peroxidase activity was visualized by the Enhanced Chemiluminescence Detection System (Amersham).
To detect phosphorylation of MAP kinases, ATF2, or MKK3/6, iDC and mDC were activated with agonistic 513 anti-DDR1 IgM or control IgM for varous times. Since TNF-α is known to activate p38 MAP kinase (Ono and Han, Cell. Signal. 12:1-13, 2000), cells were washed 6 times with PBS before activation in order to minimize the effect of TNF-α. Twenty μl of cell lysates were directly mixed with 20 μl of sample buffer and then analyzed.

DDR1b = target: T1, DDR1b (Homo sapiens, UniProt Q08345); assay: Autophosphorylation of DDR1b overexpressed in THP-1 cells; format: cell-based
T1 construct: one of the clones, clone 11B, contained the full-length human DDR1b cDNA; expressed in transfected cells; host or cells: THP-1 human monocytic leukemia cells, retroviral vector pLXSN, G418-selected clones
T1 sequence (Q08345 19-913): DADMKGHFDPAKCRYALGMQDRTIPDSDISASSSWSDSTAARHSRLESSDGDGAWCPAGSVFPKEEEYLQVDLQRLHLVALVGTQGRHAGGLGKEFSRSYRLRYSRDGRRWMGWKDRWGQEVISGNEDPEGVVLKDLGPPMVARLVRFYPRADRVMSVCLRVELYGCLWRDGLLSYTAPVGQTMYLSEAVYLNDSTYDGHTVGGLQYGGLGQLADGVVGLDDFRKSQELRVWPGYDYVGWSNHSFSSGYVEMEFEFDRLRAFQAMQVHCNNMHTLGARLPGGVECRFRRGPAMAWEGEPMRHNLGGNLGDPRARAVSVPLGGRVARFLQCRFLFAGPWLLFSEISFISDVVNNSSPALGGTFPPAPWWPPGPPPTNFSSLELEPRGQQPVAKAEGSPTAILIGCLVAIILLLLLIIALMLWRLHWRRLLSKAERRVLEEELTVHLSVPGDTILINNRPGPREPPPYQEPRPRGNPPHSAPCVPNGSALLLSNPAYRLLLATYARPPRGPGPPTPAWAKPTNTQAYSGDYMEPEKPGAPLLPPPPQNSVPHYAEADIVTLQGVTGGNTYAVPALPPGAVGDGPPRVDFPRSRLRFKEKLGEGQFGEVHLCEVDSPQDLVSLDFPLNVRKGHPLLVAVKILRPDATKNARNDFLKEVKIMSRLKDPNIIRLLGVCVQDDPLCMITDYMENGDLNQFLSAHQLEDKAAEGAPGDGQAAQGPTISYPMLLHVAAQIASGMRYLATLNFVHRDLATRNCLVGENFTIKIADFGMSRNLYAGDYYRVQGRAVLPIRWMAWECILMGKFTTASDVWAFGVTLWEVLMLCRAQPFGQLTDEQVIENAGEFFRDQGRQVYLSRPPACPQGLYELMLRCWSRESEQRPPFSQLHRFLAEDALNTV
Protocol: Using the retrovirus-infected cell lines, the effect of collagen type I on the phosphorylation of DDR1 proteins was tested. Two million cells in 3 ml complete medium were added onto collagen type I-coated plastic plates and incubated at 37° C. for various times. Cell lysates were prepared and immunoprecipitation was performed with the anti-DDR1 antibody. One-fourth of the immunoprecipitated samples was subjected to SDS-PAGE and Western blotting. The membranes were blotted with anti-pTyr and anti-DDR1 antibody. Low levels of constitutive autophosphorylation of both receptors were detected. The levels of autophosphorylation increased slightly at 15 minutes and peaked at 90 minutes after activation of the cells on collagen type I-coated plastic plates. The peak level was maintained for up to 240 minutes for DDR1a, which is consistent with the previously reported delayed kinetics of […] autophosphorylation in other cell types (Vogel FASEB J, (Suppl.), S77-S82, 1999). In contrast, autophosphorylation of DDR1b decreased after 90 minutes of collagen-activation.
Parental, mock, DDR1a- or DDR1b-overexpressing THP-1 cells were plated at 5×10^6/ml on uncoated tissue culture plates and stimulated with PMA (10 nM) for 24 hours, and then starved in RMPI 1640 without FCS for 10 hours. Subsequently cells were washed three times with PBS, and then incubated in the presence of 50 μg/ml collagen type I for various times.
Ten million cells were lysed on ice for 20 minutes in a buffer containing 50 mM NaCl, 20 mM Tris-HCl, 50 mM sodium fluoride, 30 mM Na4P2O7, 5 mM EGTA, 3 mM sodium orthovanadate, 1% Triton X-100, 1 mg/ml leupeptin, 1 mM PMSF, 1 mg/ml aprotinin, 1 mg/ml pepstatinA and 100 μM sodium orthovanadate treated with H2O2. […]
Eluted proteins were analyzed on 8% polyacrylamide gels by SDS-PAGE and transferred electrophoretically to nitrocellulose membranes at 150 mA for 1 hour by a semi-dry system. […] To detect phosphorylated or nonphosphorylated p38 MAP kinase or ATF-2, 20 μl of cell lysates were directly mixed with 20 μl of sample buffer and then analyzed.

MCP-1 mRNA = MCP-1 mRNA expression in PMA-treated THP-1 cells by Northern blotting; format: cell-based, human
Protocol: The effect of collagen-activation on the expression of MCP-1 mRNA in PMA-treated parental, mock-transduced, DDR1a-overexpressing, and DDR1b-overexpressing THP-1 cells was measured by Northern blotting. THP-1 cells were cultured at the cell density of 5×10^6, cells/ml in the complete medium in the presence of 10 nM PMA in 6 well tissue culture plates that were either uncoated or collagen-coated. Total RNA was extracted from each culture by using TRIZOL reagent® and Northern blot analysis was performed as described (Yoshimura, J. Immunol. 150:5025, 1993). IL-1β cDNA was obtained by RT-PCR from a human monocyte cDNA library using the following primer pair: sense primer 5′-[…]-3′ (SEQ ID NO: 13) and anti-sense primer 5′-[…]-3′ (SEQ ID NO: 14). Each cDNA was labeled with [α-^32P]dCTP using Rediprime™ II random prime labeling system (Amersham Pharmacia Biotech).

[1] = PMA-treated cells, 50 μg/ml collagen type I

DDR1, sequence (Q08345 19-417 limits assumed): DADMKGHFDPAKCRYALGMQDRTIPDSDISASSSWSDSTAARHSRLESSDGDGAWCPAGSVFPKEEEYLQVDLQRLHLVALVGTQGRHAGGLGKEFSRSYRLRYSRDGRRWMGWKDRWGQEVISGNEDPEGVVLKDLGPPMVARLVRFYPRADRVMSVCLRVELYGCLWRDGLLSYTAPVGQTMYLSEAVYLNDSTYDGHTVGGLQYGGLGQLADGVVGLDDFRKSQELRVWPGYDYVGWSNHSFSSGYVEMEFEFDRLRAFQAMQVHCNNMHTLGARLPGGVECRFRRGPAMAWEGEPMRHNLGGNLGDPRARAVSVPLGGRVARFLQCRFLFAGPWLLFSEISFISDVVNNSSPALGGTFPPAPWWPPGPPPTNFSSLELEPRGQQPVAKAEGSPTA

activation of ERK1, ERK2, JNK, MKK3/6 (DDR1)	time autophosphorylation detectable (DDR1b; [1]) [min]	time of peak autophosphorylation (DDR1b; [1]) [min]	time of peak autophosphorylation (DDR1b; collagen type I-coated plates, cells not PMA-treated) [min]	Substance	level of MCP-1 mRNA expression (MCP-1 mRNA; PMA-treated DDR1b-overexpressing cells on collagen-coated plates)	MCP-1 mRNA expression (MCP-1 mRNA; PMA-treated parental cells)
rapidly activated				TNF-α		
	30	60	90	collagen	rapidly up-regulated	no effect
